What was measured:
[1] = molecular target: human α7 nAChR (Homo sapiens, UniProt P36544); type: cell-based
[2] = molecular target: α1_2βγδ (Torpedo) nAChR; test: Equilibrium competition binding with [125I]α-BTX on Torpedo membranes; conditions: read-out: Ki ± SEM
[3] = molecular target: chimeric α7-5HT3 nAChR (UniProt P22770+P23979, M226I/T225I); type: binding; conditions: read-out: Ki ± SEM; α7–5HT3 (chick), [125I]α-BTX
[4] = molecular target: human α4β2 nAChR (Homo sapiens, UniProt P17787+P43681); type: binding
[5] = molecular target: human α3β2 nAChR (Homo sapiens, UniProt P17787+P32297); type: binding; conditions: read-out: Ki ± SEM, [3H]epibatidine
[6] = test system: human M1 mAChR; test: [3H]NMS binding inhibition, CHO cell membranes, M1; conditions: 1 μM
[7] = test system: human M2 mAChR; test: [3H]NMS binding inhibition, CHO cell membranes, M2; conditions: 1 μM
[8] = test system: human M3 mAChR; test: [3H]NMS binding inhibition, CHO cell membranes, M3; conditions: 1 μM
[9] = test system: human M4 mAChR; test: [3H]NMS binding inhibition, CHO cell membranes, M4; conditions: 1 μM
[10] = test system: human M5 mAChR; test: [3H]NMS binding inhibition, CHO cell membranes, M5; conditions: 1 μM, M5, [3H]NMS
[11] = test system: calcium channels; test: Broad receptor binding screening; conditions: 10 μM
[12] = test system: mice; conditions: intraperitoneal injection of a lethal dose
[13] = molecular target: α1_2βγδ (Torpedo) nAChR; conditions: read-out: Kd of radioligand on muscle-type receptor; cited from earlier work

Row | Molecule | Effect on rate of desensitization of ACh-evoked currents ([1]; 350 μM ACh, −60 mV) | Direct agonist effect (current evoked when applied on its own) ([1]; 0.1–50 nM, n = 6) | Reversibility of blocking action on α7 nAChR ([1]; after a 10–15 min washout) | Ki [2] | Ki [3] | Fraction of [3H]epibatidine displaced (partial antagonist property) [4] | Ki ([4]; read-out: Ki ± SEM, α4β2 (human), [3H]epibatidine) | Ki [5] | Effect on 3H-NMS binding [6] | Effect on 3H-NMS binding [7] | Effect on 3H-NMS binding [8] | Effect on 3H-NMS binding [9] | Radiotracer displacement [10] | Binding activity for calcium channels [11] | Toxicological profile (symptoms) [12] | Kd [13]
1 | C=C1CCCC2=NC[C@H](C)[C@@H](C)C[C@@]23CCC(C(=O)O)=C[C@@H]3[C@@H]2O[C@]3(C[C@H]4CCC[C@@]5(CC[C@@]6(O[C@@H](CC[C@@]6(C)O)C1)O5)O4)C[C@@H](C)[C@@H](O)[C@H]2O3 [PnTX A, pinnatoxin A] | did not appear to affect the rate of desensitization | did not evoke any current | not reversible | 2.8 ± 0.03 nM | 0.35 ± 0.04 nM | approximately half | 15.6 ± 5.2 nM | 9.4 ± 1.9 nM | no significant effect | no significant effect | no significant effect | no significant effect | 35% | no significant binding activity | transient mouse hyperactivity, followed by a decrease in respiratory rate with prominent abdominal breathing leading to death due to respiratory paralysis | 
2 | α-bungarotoxin [α-BTX] |  |  |  |  |  |  |  |  |  |  |  |  |  |  |  | 0.05 nM

From publication PMC3365589 (Journal of the American Chemical Society, 2011)
